Results reported in PubChem BioAssay AID1963973 (Molecular Pharmacology Branch, DTP, NCI, 2024).

Tested on: 883617-216-R-J1-PDC tumor spheroids, viability
Test: Anticancer human tumor 883617-216-R-J1-PDC patient-derived bladder carcinoma cell line growth inhibition [PI3K]
Conditions: spheroids with HUVEC and MSC; for IC50: curve of first compound; for viability, T/C: stronger effect = lower value
How it was run: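 Targeted small molecules plus PI3K inhibitors, half-log dose series from Cmax (default top 10 microM), were applied to heterotypic spheroids of cancer cells with HUVEC and MSCs. Viability indicated growth inhibition.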

[1] = second compound 0.0316 µM, first compound 0.0316 µM
[2] = second compound 0.0316 µM, first compound 0.1 µM
[3] = second compound 0.0316 µM, first compound 0.316 µM
[4] = second compound 0.0316 µM, first compound 1 µM
[5] = second compound 0.0316 µM, first compound 3.16 µM
[6] = second compound 0.0316 µM, first compound 10 µM
[7] = second compound 0.1 µM, first compound 0.0316 µM
[8] = second compound 0.1 µM, first compound 0.1 µM
[9] = second compound 0.1 µM, first compound 0.316 µM
[10] = second compound 0.1 µM, first compound 1 µM
[11] = second compound 0.1 µM, first compound 3.16 µM
[12] = second compound 0.1 µM, first compound 10 µM
[13] = second compound 0.316 µM, first compound 0.0316 µM
[14] = second compound 0.316 µM, first compound 0.1 µM
[15] = second compound 0.316 µM, first compound 0.316 µM
[16] = second compound 0.316 µM, first compound 1 µM
[17] = second compound 0.316 µM, first compound 3.16 µM
[18] = second compound 0.316 µM, first compound 10 µM
[19] = second compound 1 µM, first compound 0.0316 µM
[20] = second compound 1 µM, first compound 0.1 µM
[21] = second compound 1 µM, first compound 0.316 µM
[22] = second compound 1 µM, first compound 1 µM
[23] = second compound 1 µM, first compound 3.16 µM
[24] = second compound 1 µM, first compound 10 µM
[25] = second compound 3.16 µM, first compound 0.0316 µM
[26] = second compound 3.16 µM, first compound 0.1 µM
[27] = second compound 3.16 µM, first compound 0.316 µM
[28] = second compound 3.16 µM, first compound 1 µM
[29] = second compound 3.16 µM, first compound 3.16 µM
[30] = second compound 3.16 µM, first compound 10 µM
[31] = second compound 10 µM, first compound 0.0316 µM
[32] = second compound 10 µM, first compound 0.1 µM
[33] = second compound 10 µM, first compound 0.316 µM
[34] = second compound 10 µM, first compound 1 µM
[35] = second compound 10 µM, first compound 3.16 µM
[36] = second compound 10 µM, first compound 10 µM
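Note: spheroids exposed to agents for 7 days before the viability read.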

In the case of `C=CC(=O)N1CCN(c2nc(=O)n(-c3c(C)ccnc3C(C)C)c3nc(-c4c(O)cccc4F)c(F)cc23)C(C)C1` (stereo unspecified) + Cc1nc(NC(=O)N2CCCC2C(N)=O)sc1-c1ccnc(C(C)(C)C(F)(F)F)c1, the IC50 (second compound 0.0316 µM) is reported as < 0.0316 µM, the IC50 (second compound 0.1 µM) is reported as < 0.0316 µM and the IC50 (second compound 0.316 µM) is reported as < 0.0316 µM. For the same molecule, the IC50 (second compound 1 µM) was < 0.0316 µM, the IC50 (second compound 3.16 µM) was < 0.0316 µM and the IC50 (second compound 10 µM) was < 0.0316 µM. The viability, T/C [1] was 56.5%, the viability, T/C [2] was 45.7% and the viability, T/C [3] was 44.1%. It also gave a viability, T/C [4] of 51.8%, a viability, T/C [5] of 70.4% and a viability, T/C [6] of 60.9%. It also gave a viability, T/C [7] of 37.3%, a viability, T/C [8] of 35.9% and a viability, T/C [9] of 40.3%. For the same molecule, the viability, T/C [10] was 34.9%, the viability, T/C [11] was 52.9% and the viability, T/C [12] was 46.2%. The viability, T/C [13] was 32.5%, the viability, T/C [14] was 22.4% and the viability, T/C [15] was 25.6%. For the same molecule, the viability, T/C [16] was 27.5%, the viability, T/C [17] was 34.6% and the viability, T/C [18] was 35%. The viability, T/C [19] was 14.7%, the viability, T/C [20] was 12.8% and the viability, T/C [21] was 13.9%. The viability, T/C [22] was 17.1%, the viability, T/C [23] was 26.2% and the viability, T/C [24] was 20.5%. The viability, T/C [25] was 10.3%, the viability, T/C [26] was 6.71% and the viability, T/C [27] was 6.68%. The viability, T/C [28] was 9.84%, the viability, T/C [29] was 12.8% and the viability, T/C [30] was 11.2%. It also gave a viability, T/C [31] of 3.61%, a viability, T/C [32] of 2.75% and a viability, T/C [33] of 3.18%. For the same molecule, the viability, T/C [34] was 4.91%, the viability, T/C [35] was 7.96% and the viability, T/C [36] was 6.43%.
With `Cn1ncc(Cl)c1-c1cc(C(=O)NC(CN)Cc2cccc(F)c2)sc1Cl` (stereo unspecified) + Cc1nc(NC(=O)N2CCCC2C(N)=O)sc1-c1ccnc(C(C)(C)C(F)(F)F)c1 the IC50 (second compound 0.0316 µM) was 0.249 µM, the IC50 (second compound 0.1 µM) was 0.236 µM and the IC50 (second compound 0.316 µM) was < 0.0316 µM. For the same molecule, the IC50 (second compound 1 µM) was < 0.0316 µM, the IC50 (second compound 3.16 µM) was < 0.0316 µM and the IC50 (second compound 10 µM) was < 0.0316 µM. The viability, T/C [1] was 88.3%, the viability, T/C [2] was 67.7% and the viability, T/C [3] was 45.5%. For the same molecule, the viability, T/C [4] was 26.1%, the viability, T/C [5] was 11.8% and the viability, T/C [6] was 5.02%. The viability, T/C [7] was 75%, the viability, T/C [8] was 67.1% and the viability, T/C [9] was 42.7%. For the same molecule, the viability, T/C [10] was 25%, the viability, T/C [11] was 11.1% and the viability, T/C [12] was 4.24%. The viability, T/C [13] was 42.6%, the viability, T/C [14] was 41.6% and the viability, T/C [15] was 34.4%. It also gave a viability, T/C [16] of 18.6%, a viability, T/C [17] of 8.47% and a viability, T/C [18] of 2.6%. It also gave a viability, T/C [19] of 29.2%, a viability, T/C [20] of 30.8% and a viability, T/C [21] of 20.7%. It also gave a viability, T/C [22] of 13.9%, a viability, T/C [23] of 7.58% and a viability, T/C [24] of 2.44%. It also gave a viability, T/C [25] of 15.4%, a viability, T/C [26] of 13.4% and a viability, T/C [27] of 12.4%. It also gave a viability, T/C [28] of 8.34%, a viability, T/C [29] of 5.31% and a viability, T/C [30] of 1.74%. For the same molecule, the viability, T/C [31] was 9.56%, the viability, T/C [32] was 7.78% and the viability, T/C [33] was 5.02%. It also gave a viability, T/C [34] of 5.6%, a viability, T/C [35] of 3.31% and a viability, T/C [36] of 0.93%.
`Cn1nccc1Nc1nccc(-c2ccn(C(CO)c3ccc(Cl)c(F)c3)c(=O)c2)n1` (stereo unspecified) + Cc1nc(NC(=O)N2CCCC2C(N)=O)sc1-c1ccnc(C(C)(C)C(F)(F)F)c1 was tested, and the IC50 (second compound 0.0316 µM) was 9.04 µM, the IC50 (second compound 0.1 µM) was 2.55 µM and the IC50 (second compound 0.316 µM) was < 0.0316 µM. For the same molecule, the IC50 (second compound 1 µM) was < 0.0316 µM, the IC50 (second compound 3.16 µM) was < 0.0316 µM and the IC50 (second compound 10 µM) was < 0.0316 µM. For the same molecule, the viability, T/C [1] was 82.5%, the viability, T/C [2] was 79.8% and the viability, T/C [3] was 68.7%. The viability, T/C [4] was 68.3%, the viability, T/C [5] was 68% and the viability, T/C [6] was 46.3%. The viability, T/C [7] was 69.7%, the viability, T/C [8] was 72.5% and the viability, T/C [9] was 66.7%. For the same molecule, the viability, T/C [10] was 56%, the viability, T/C [11] was 48.7% and the viability, T/C [12] was 33.2%. The viability, T/C [13] was 47.3%, the viability, T/C [14] was 44.1% and the viability, T/C [15] was 43.9%. It also gave a viability, T/C [16] of 34.5%, a viability, T/C [17] of 30.8% and a viability, T/C [18] of 24.4%. The viability, T/C [19] was 26.2%, the viability, T/C [20] was 25.7% and the viability, T/C [21] was 26.3%. For the same molecule, the viability, T/C [22] was 20.5%, the viability, T/C [23] was 15.1% and the viability, T/C [24] was 12.8%. It also gave a viability, T/C [25] of 13.3%, a viability, T/C [26] of 12.2% and a viability, T/C [27] of 9.5%. For the same molecule, the viability, T/C [28] was 9.97%, the viability, T/C [29] was 8.33% and the viability, T/C [30] was 7.21%. It also gave a viability, T/C [31] of 5.74%, a viability, T/C [32] of 5.78% and a viability, T/C [33] of 4.59%. For the same molecule, the viability, T/C [34] was 4.62%, the viability, T/C [35] was 3.21% and the viability, T/C [36] was 1.26%.
